The test concerns the target T1, human recombinant collagenase (Homo sapiens, UniProt P03956).
T1 construct: made in house; host or cells: E. coli
T1 sequence (P03956 100-469): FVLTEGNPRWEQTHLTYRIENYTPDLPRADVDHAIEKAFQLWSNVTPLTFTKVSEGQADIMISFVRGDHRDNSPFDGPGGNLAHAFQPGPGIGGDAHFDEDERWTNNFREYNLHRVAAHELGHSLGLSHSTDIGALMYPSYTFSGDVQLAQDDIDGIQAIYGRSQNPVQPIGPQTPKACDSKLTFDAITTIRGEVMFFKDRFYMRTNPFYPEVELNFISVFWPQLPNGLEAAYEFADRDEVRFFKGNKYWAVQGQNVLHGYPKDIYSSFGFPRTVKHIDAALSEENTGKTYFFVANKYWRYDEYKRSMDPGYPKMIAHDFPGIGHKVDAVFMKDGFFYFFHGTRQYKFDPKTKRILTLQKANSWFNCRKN
The test can be described thus: Collagenase inhibition assay. The class given is biochemical. The following applies: 37° C., 18 h, acetylated 3H type 1 bovine collagen. How it is done:
Procedure 2: The Ability of Test Compounds to Inhibit Collagenase was Investigated Using the Following Procedure.
Collagenase Inhibition Assay:
The potency of compounds to act as inhibitors of collagenase was determined by the method of Cawston and Barrett (Anal. Biochem. 99, 340-345, 1979), hereby incorporated by reference, whereby a 1 mM solution of the inhibitor being tested or dilutions thereof, was incubated at 37° C. for 18 h with collagen and human recombinant collagenase, from synovial fibroblasts cloned, expressed and purified from E. Coli, (buffered with 150 mM Tris, pH 7.6, containing 15 mM calcium chloride, 0.05% Brij 35, 200 mM sodium chloride and 0.02% sodium azide). The collagen was acetylated ^3H type 1 bovine collagen prepared by the method of Cawston and Murphy (methods in Enzymology 80, 711,1981) The samples were centrifuged to sediment undigested collagen and an aliquot of the radioactive supernatant removed for assay on a scintillation counter as a measure of hydrolysis. The collagenase activity in the presence of 1 mM inhibitor, or dilution thereof, was compared to activity in a control devoid of inhibitor and the results reported as that concentration effecting 50% of the collagenase (IC50).

Where only a bound is given, the exact number is not on record here.

The term IC50 denotes the midpoint of a concentration-inhibition curve. With `O=C(NO)[C@H]1CCCCN1S(=O)(=O)Cc1ccc2ccccc2c1` [Example 2, (R)-1-(Naphthalen-2-ylmethanesulfonyl)piperidine-2-carboxylic Acid N-hydroxyamide], the half-inhibitory concentration (IC50) is > 10 µM.

For the origin of these results see patent US20030195191A1, “N-sulfonyl hydroxamic acid derivatives as inhibitors of cd23” (priority 2000, published 2003).
